Laboratory results as given in patent US7579356B2, “Thia-tetraazaacenaphthylene kinase inhibitors” (Janssen Pharmaceutica NV, priority 2005, dated 2009).
pIC50: −log10 of the molar value.

Assays:
c-Src kinase (human) = molecular target: T1, c-Src kinase (human) (Homo sapiens, UniProt P12931); test: c-Src Kinase Assay; type: biochemical; settings: test concentration of 2 μM; multiple values are separate assay results
T1 construct: purchased Upstate Biotechnology, Lake Placid, N.Y
Procedure, shortened: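 Inhibition was read as 33P incorporation, counted on P30 filtermats, after a 40 min, 30° C reaction. Human c-Src acted on 100 μM Cdc2 peptide with 5 μM ATP (final), pH 7.0 MOPS/MgCl2. Values are percent inhibition at 2 μM compound, or IC50 where determined.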

Lyn kinase (human) = molecular target: T2, Lyn kinase (human) (Homo sapiens, UniProt P07948); test: Lyn Kinase Assay; type: biochemical; settings: test concentration of 2 μM
T2 construct: purchased Upstate Biotechnology, Lake Placid, N.Y
Procedure, shortened: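 Radiometric filter-binding assay with recombinant human Lyn, poly(Glu,Tyr) substrate (0.1 mg/mL final), 5 μM ATP plus γ-33P-ATP in MOPS pH 7.5/Mg acetate buffer; 40 min at 30 °C, stopped with phosphoric acid, counted by scintillation. Reported as percent inhibition at 2 μM, with IC50 (μM) where determined.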

HCT-116 colon carcinoma = test: Cell Proliferation Inhibition Assay, HCT-116 (14C-thymidine); type: cell-based; settings: Homo sapiens, HCT-116 cell proliferation
Text: Cell Proliferation Inhibition Assay
The ability of a test compound to inhibit unregulated cell proliferation may be determined by measuring incorporation of ^14C-labelled thymidine into newly synthesized DNA within cell lines derived from carcinomas originating from several tissues. Accordingly, the effect of a test compound on proliferation of cells with a variety of phenotypes may be determined.
Carcinoma cell lines used include the HeLa cervical adenocarcinoma from the American Type Culture Collection (ATCC Cat. #CCL2), A375 malignant melanoma (ATCC Cat. #CRL-1619), HCT-116 colon carcinoma (ATCC Cat. #CCL-247), SKBR3 breast carcinoma (ATCC Cat. #HTB-30) and BT474 breast carcinoma (ATCC Cat. #HTB-20).
The carcinoma cells were trypsinized and counted. The cells (3000-8000 count) were added to each well of a 96-well CytoStar tissue culture treated scintillating microplate (Amersham #RPNQ0160) in complete medium (100 μL) and the plate was then incubated in complete medium for 24 hrs at 37° C. in an inert atmosphere containing 5% CO2.
Test compound (1 μL) in 100% DMSO was added to the plate test-wells with DMSO only added to control-wells. The plate was incubated in complete medium for a second 24 hr period at 37° C. in an atmosphere containing 5% CO2.
An aliquot of a solution of Methyl ^14C-thymidine (56 mC/mmol) (NEN #NEC568 or AMersham #CFA532) and complete medium (20 uL to provide 0.2 μCl/well) was then added to each well and the plate was incubated for a third 24 hr period at 37° C. in an atmosphere containing 5% CO2.
The plate contents were then discarded, the plate washed twice with PBS (200 μL) and then PBS (200 μL) was added to each well. The plate was sealed and the degree of methyl ^14C-thymidine incorporation was quantified on a Packard Top Count.
Cell proliferation of the Hela cell line was measured using the ATP-Lite method as described in the ATP Lite Kit (Perkin-Elmer Kit Number 6106941) or the C^14 method as described above. Cell proliferation of the other cell lines was measured using the C^14 method.

T1 sequence (P12931 whole entry): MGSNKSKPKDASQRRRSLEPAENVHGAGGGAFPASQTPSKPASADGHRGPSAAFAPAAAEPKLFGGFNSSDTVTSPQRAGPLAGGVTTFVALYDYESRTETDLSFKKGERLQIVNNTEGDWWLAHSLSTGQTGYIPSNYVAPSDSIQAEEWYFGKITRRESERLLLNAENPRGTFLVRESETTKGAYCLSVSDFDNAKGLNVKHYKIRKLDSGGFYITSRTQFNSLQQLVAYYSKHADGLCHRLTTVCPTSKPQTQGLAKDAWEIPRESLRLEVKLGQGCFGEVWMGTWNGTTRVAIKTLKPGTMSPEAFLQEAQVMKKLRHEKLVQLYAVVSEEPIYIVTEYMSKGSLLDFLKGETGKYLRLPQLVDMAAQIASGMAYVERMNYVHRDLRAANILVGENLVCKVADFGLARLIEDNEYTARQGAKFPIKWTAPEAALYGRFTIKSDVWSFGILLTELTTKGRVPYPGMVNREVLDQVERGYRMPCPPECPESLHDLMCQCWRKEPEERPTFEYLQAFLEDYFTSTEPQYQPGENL
T2 sequence (P07948 whole entry): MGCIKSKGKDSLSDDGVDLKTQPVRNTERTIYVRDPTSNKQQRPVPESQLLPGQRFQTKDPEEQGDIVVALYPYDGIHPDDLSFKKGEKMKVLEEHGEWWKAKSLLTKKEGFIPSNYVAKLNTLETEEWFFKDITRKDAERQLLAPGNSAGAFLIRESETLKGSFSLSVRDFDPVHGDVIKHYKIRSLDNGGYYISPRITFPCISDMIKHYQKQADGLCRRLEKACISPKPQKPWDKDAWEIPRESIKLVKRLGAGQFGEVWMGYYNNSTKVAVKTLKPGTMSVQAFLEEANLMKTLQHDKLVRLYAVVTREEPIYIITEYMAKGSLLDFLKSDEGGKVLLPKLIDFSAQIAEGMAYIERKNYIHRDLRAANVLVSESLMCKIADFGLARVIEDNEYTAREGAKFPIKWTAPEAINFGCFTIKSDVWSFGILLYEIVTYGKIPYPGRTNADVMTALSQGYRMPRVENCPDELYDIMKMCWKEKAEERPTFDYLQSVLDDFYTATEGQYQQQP

Row | Structure (SMILES) | inhibition at 2 µM (c-Src kinase (human)) [%] | inhibition at 2 µM (Lyn kinase (human)) [%] | pIC50 (HCT-116 colon carcinoma)
1 | Cc1ccc(Br)cc1N1C(=O)Nc2c(C(=O)NC3CCN(C)CC3)sc3ncnc1c23 [Cpd 117, 5-(5-bromo-2-methyl-phenyl)-4-oxo-4,5-dihydro-3H-1-thia-3,5,6,8-tetraaza-acenaphthylene-2-carboxylic acid (1-methyl-piperidin-4-yl)-amide] | 25 | 12 | 4.00
2 | CN1CCC(NC(=O)c2sc3ncnc4c3c2NC(=O)N4c2ccc(Oc3ccc(F)cc3)cc2)CC1 [Cpd 118, 5-[4-(4-fluoro-phenoxy)-phenyl]-4-oxo-4,5-dihydro-3H-1-thia-3,5,6,8-tetraaza-acenaphthylene-2-carboxylic acid (1-methyl-piperidin-4-yl)-amide] | 15 | 12 | 5.00
